Assay results as given in ChEMBL document CHEMBL4145614, “Cyclopeptides from the Sponge Stylissa flabelliformis” (J Nat Prod, 2018).

Key:
K562 = test: Cytotoxicity against human K562 cells after 72 hrs by sulforhodamine B assay; assay type: functional, cell-based; conditions: k562
Salmonella typhimurium = test: Antibacterial activity against Salmonella typhimurium ATCC 14028 measured after 24 hrs; assay type: functional, Salmonella enterica subsp. enterica serovar Typhimurium; conditions: Salmonella enterica, ATCC 14028, 24 h
Candida albicans = test: Antifungal activity against Candida albicans ATCC 10231 measured after 48 to 72 hrs; assay type: functional
SK-HEP1 = test: Cytotoxicity against human SKHEP1 cells after 72 hrs by sulforhodamine B assay; assay type: functional, cell-based; conditions: sk-hep1
SNU-638 = test: Cytotoxicity against human SNU638 cells after 72 hrs by sulforhodamine B assay; assay type: functional, cell-based; conditions: snu-638
Escherichia coli = test: Antibacterial activity against Escherichia coli ATCC 25922 measured after 24 hrs; assay type: functional; conditions: ATCC 25922, 24 h
HCT-116 = test: Cytotoxicity against human HCT116 cells after 72 hrs by sulforhodamine B assay; assay type: functional, cell-based; conditions: hct-116
Trichophyton rubrum = test: Antifungal activity against Trichophyton rubrum IFO 9185 measured after 48 to 72 hrs; assay type: functional
Bacillus spizizenii = test: Antibacterial activity against Bacillus subtilis ATCC 6633 measured after 24 hrs; assay type: functional; conditions: ATCC 6633, 24 h
MDA-MB-231 = test: Cytotoxicity against human MDA-MB-231 cells after 72 hrs by sulforhodamine B assay; assay type: functional, cell-based
Proteus vulgaris = test: Antibacterial activity against Proteus vulgaris ATCC 3851 measured after 24 hrs; assay type: functional; conditions: ATCC 3851, 24 h
[1] = Inhibition of recombinant bacterial sortase A using Dabcyl-QALPETGEE-Edans as substrate measured after 1 hr by fluorescence assay; parameters: species or system Bacteria
[2] = system: Trichophyton mentagrophytes; test: Antifungal activity against Trichophyton mentagrophytes IFO 40996 measured after 48 to 72 hrs; assay type: functional
Micrococcus luteus = test: Antibacterial activity against Micrococcus luteus IFC 12708 measured after 24 hrs; assay type: functional; conditions: IFC 12708, 24 h
Aspergillus fumigatus = test: Antifungal activity against Aspergillus fumigatus HIC 6094 measured after 48 to 72 hrs; assay type: functional
Staphylococcus aureus = test: Antibacterial activity against Staphylococcus aureus ATCC 6538P measured after 24 hrs; assay type: functional
[3] = biological target: Sodium/potassium-transporting ATPase; test: Inhibition of potassium-activated sodium/potassium ATPase in human placenta using 3-O-methylfluorescein phosphate as substrate measured for 90 secs by fluorescence assay

Description for A549: Cytotoxicity against human A549 cells after 72 hrs by sulforhodamine B assay

Structure (SMILES)	IC50 (K562)	MIC (Salmonella typhimurium)	MIC (Candida albicans)	IC50 (SK-HEP1)	IC50 (SNU-638)	MIC (Escherichia coli)	IC50 (HCT-116)	MIC (Trichophyton rubrum)	MIC (Bacillus spizizenii)	IC50 (MDA-MB-231; mda-mb-231)	MIC (Proteus vulgaris)	IC50 [1]	MIC [2]	IC50 (A549)	MIC (Micrococcus luteus)	MIC (Aspergillus fumigatus)	MIC (Staphylococcus aureus)	IC50 [3]	IC50 (MDA-MB-231; Homo sapiens, MDA-MB-231, 72 h)
CC[C@H](C)[C@@H]1NC(=O)[C@H](Cc2ccc(O)cc2)NC(=O)[C@@H]2CCCN2C(=O)[C@@H]2CCCN2C(=O)[C@H](CC(C)C)NC(=O)[C@H](CCC(=O)O)NC(=O)[C@H](Cc2ccccc2)NC(=O)[C@H](CC[S+](C)[O-])NC(=O)[C@@H]2CCCN2C(=O)[C@@H]2CCCN2C1=O (single isomer, unassigned; Epimer-1)	170 nM	> 128 µM	> 128 µM	41 nM	160 nM	> 128 µM	140 nM	> 128 µM	> 128 µM	400 nM	> 128 µM	> 100000 nM	> 128 µM	190 nM	> 128 µM	> 128 µM	> 128 µM	> 100000 nM	
CC[C@H](C)[C@@H]1NC(=O)[C@H](Cc2ccc(O)cc2)NC(=O)[C@@H]2CCCN2C(=O)[C@@H]2CCCN2C(=O)[C@H](CC(C)C)NC(=O)[C@H](CCC(=O)O)NC(=O)[C@H](Cc2ccccc2)NC(=O)[C@H](CC[S+](C)[O-])NC(=O)[C@@H]2CCCN2C(=O)[C@@H]2CCCN2C1=O (single isomer, unassigned; epimer 2)	21 nM			14 nM	10 nM		11 nM							23 nM					350 nM
